{"source": "patent US20120237441A9", "about": "“ENHANCED B CELL CYTOTOXICITY OF CDIM BINDING ANTIBODY” (priority 2003, published 2012)", "key": {"[1]": {"system": "Nalm-6 cells", "assay": "Cell viability assay using PI staining and forward scatter", "assay_type": "cell-based, human", "details": "for viability: cytochalasin 5 μgs/ml or jasplakinolide 3 μgs/ml for 2 hr, then control antibodies; for effect of caspase inhibitor on cell viability: 10 μM for 2 hr at 37° C. before treatment with mAb 216", "method": "The integrity of the plasma membrane was assessed by the ability of cells to exclude propidium iodide (PI, Sigma, St. Louis, Mo.). The level of PI incorporation was quantitated by flow cytometry on FACScan (Becton-Dickinson, San Jose Calif.) interfaced with VersatermPro and FlowJo software at Stanford's FACS facility. PI-negative cells with normal size as measured by forward scatter signals were considered live cells.\nBriefly, cells were treated as specified in each experiment and resuspended in PBS with 3% FCS and 10 μgs/ml of PI. In experiments where toxicity was evaluated in Ca-free medium, cells were resuspended in appropriate media with or without calcium to which 10 μgs/ml PI was added. Since previous studies have shown that mAb 216-mediated toxicity is remarkably pronounced at lower temperatures (Bhat, N. M., et al. (1996) Clin. Exp. Immunol. 105:183), precautions were taken to keep all media and cells at 37° C. and the centrifuge at room temperature.\nCytochalasin was obtained from Sigma and jasplakinolide was obtained from Molecular Probes (Eugene, Oreg.). Caspase inhibitors, Ac-IETD-CHO and Ac-DEVD-CHO were obtained from PharMingen (San Diego, Calif.). Nalm-6 cells (1×10^6 cells/ml) were treated with jasplakinolide (3 μgs/ml), cytochalasin (5 μgs/ml), or caspase inhibitors (10 μM) for 2 hr at 37° C. before treatment with mAb 216. Control samples with equivalent amounts of DMSO were set in parallel. Cells were then exposed to 25 μg of mAb 216 or control Ab and analyzed by flow cytometry.\nSince exocytosis of lysosomes is known to be a calcium dependent phenomenon (Miyake, K., and P. L. McNeil (1995) J. Cell Biol. 131:1737; Bi, G. Q., et al. (1995) J. Cell Biol. 131:1747), membrane wounding by mAb 216 nd repair of the wound was tested in calcium free and normal calcium conditions. The cell viability of Nalm-6 cells when treated with two VH4-34 encoded mAbs, mAb 216 at 50, 25 and 12.5 ng/ml concentrations, and Y2K at 50 ng/ml, was tested in the presence of media with and without calcium.\nBrefeldin-A was obtained from Sigma. Nalm-6 cells (1×10^6 cells/ml) were treated with BFA (25 μg/ml) for 2 hr at 37° C. before treatment with mAb 216. Control samples with equivalent amounts of DMSO were set in parallel. Cells were then exposed to 25 μg of mAb 216 or control Ab and analyzed by flow cytometry."}, "[2]": {"system": "SUP B15", "assay": "In vitro cytotoxicity of mAb216 in combination with chemotherapeutic agents", "assay_type": "cell-based", "details": "48 h; for % change in live cells: versus control", "method": "(§1) Three cell lines which have been derived from ALL blasts of different genotype and phenotype, Nalm 6, REH, and SUPB15, were incubated with mAb 216 alone or in combination with vincristine (VCR), for 48 hours at 37° C.\n(§2) In vitro cytotoxicity of mAb216 in combination with single chemotherapeutic agents was tested. Three cell lines which have been derived from ALL blasts of different genotype and phenotype, Nalm 6, REH, and SUPB 15, were incubated with mAb 216 alone or in combination with vincristine (VCR), daunorubicin (DNR), or L-asparaginase (ASPR)."}, "[3]": {"system": "Reh", "assay": "In vitro cytotoxicity of mAb216 in combination with chemotherapeutic agents", "assay_type": "cell-based, human", "details": "48 h; for % change in live cells: versus control", "method": "as §1, §2"}, "[4]": {"system": "Nalm 6", "assay": "In vitro cytotoxicity of mAb216 in combination with chemotherapeutic agents", "assay_type": "cell-based, human", "details": "for Live cells ×10^5 / % change in live cells: 48 h; for % change in live cells: versus control", "method": "as §1, §2"}}, "note": "Where “and” joins values, the source holds several entries; their conditions need not be identical. Equal entries are not always repeated."}
{"molecule": "C[C@H]1CCC/C=C/[C@@H]2C[C@H](O)C[C@H]2[C@H](O)/C=C/C(=O)O1", "note": "[BFA, Brefeldin A]", "values": [{"measurement": "viability of cells treated with control antibodies", "setting": "[1]; BFA 25 μg/ml for 2 hr", "value": "no effect"}]}
{"molecule": "COc1cccc2c1C(=O)c1c(O)c3c(c(O)c1C2=O)C[C@@](O)(C(C)=O)C[C@@H]3O[C@H]1C[C@H](N)[C@H](O)[C@H](C)O1", "note": "[DNR, daunorubicin]", "values": [{"measurement": "Live cells ×10^5", "setting": "[2]; DNR 4 ng/ml", "value": "0.44 ×10^5"}, {"measurement": "% change in live cells", "setting": "[2]; DNR 4 ng/ml", "value": 91, "unit": "%"}, {"measurement": "Live cells ×10^5", "setting": "[3]; DNR 5 ng/ml", "value": "4.5 ×10^5"}, {"measurement": "% change in live cells", "setting": "[3]; DNR 5 ng/ml", "value": 65, "unit": "%"}, {"measurement": "Live cells ×10^5", "setting": "[4]; DNR 5 ng/ml", "value": "4.3 ×10^5 and 4.5 ×10^5"}, {"measurement": "% change in live cells", "setting": "[4]; DNR 5 ng/ml", "value": "47% and 59%"}]}
{"molecule": "CC[C@]1(O)C[C@H]2CN(CCc3c([nH]c4ccccc34)[C@@](C(=O)OC)(c3cc4c(cc3OC)N(C=O)[C@H]3[C@@](O)(C(=O)OC)[C@H](OC(C)=O)[C@]5(CC)C=CCN6CC[C@]43[C@@H]65)C2)C1", "note": "[VCR, vincristine]", "values": [{"measurement": "Live cells ×10^5", "setting": "[2]; VCR 2 ng/ml", "value": "2.8 ×10^5"}, {"measurement": "% change in live cells", "setting": "[2]; VCR 2 ng/ml", "value": 45, "unit": "%"}, {"measurement": "Live cells ×10^5", "setting": "[3]; VCR 2 ng/ml", "value": "4.2 ×10^5 and 7.7 ×10^5"}, {"measurement": "Live cells ×10^5", "setting": "[4]; VCR 0.2 ng/ml", "value": "13 ×10^5"}, {"measurement": "% change in live cells", "setting": "[4]; VCR 0.2 ng/ml", "value": 0, "unit": "%"}, {"measurement": "Live cells ×10^5", "setting": "[4]; VCR 2 ng/ml", "value": "5 ×10^5"}, {"measurement": "% change in live cells", "setting": "[4]; VCR 2 ng/ml", "value": 54, "unit": "%"}, {"measurement": "cell death due to vincristine alone", "setting": "[4]; vincristine 0.2 ng/ml, 48 hours at 37° C.", "value": "no cell death occurred"}]}
{"molecule": "C/C1=C\\[C@H](C)C[C@H](C)OC(=O)C[C@H](c2ccc(O)cc2)NC(=O)[C@@H](Cc2c(Br)[nH]c3ccccc23)N(C)C(=O)[C@H](C)NC(=O)[C@@H](C)C1", "note": "[jasplakinolide]", "values": [{"measurement": "viability", "setting": "[1]", "value": "did not show a decrease in viability"}]}
{"molecule": "Ac-DEVD-CHO", "values": [{"measurement": "effect of caspase inhibitor on cell viability", "setting": "[1]", "value": "did not alter cell viability"}]}
{"molecule": "Ac-IETD-aldehyde", "values": [{"measurement": "effect of caspase inhibitor on cell viability", "setting": "[1]", "value": "did not alter cell viability"}]}
{"molecule": "cytochalasin", "values": [{"measurement": "viability", "setting": "[1]", "value": "did not show a decrease in viability"}]}
{"molecule": "L-asparaginase (protein, UniProt P00805 23-348, looked up) L-asparaginase 2: LPNITILATGGTIAGGGDSATKSNYTVGKVGVENLVNAVPQLKDIANVKGEQVVNIGSQDMNDNVWLTLAKKINTDCDKTDGFVITHGTDTMEETAYFLDLTVKCDKPVVMVGAMRPSTSMSADGPFNLYNAVVTAADKASANRGVLVVMNDTVLDGRDVTKTNTTDVATFKSVNYGPLGYIHNGKIDYQRTPARKHTSDTPFDVSKLNELPKVGIVYNYANASDLPAKALVDAGYDGIVSAGVGNGNLYKSVFDTLATAAKTGTAVVRSSRVPTGATTQDAEVDDAKYGFVASGTLNPQKARVLLQLALTQTKDPQQIQQIFNQY", "values": [{"measurement": "Live cells ×10^5", "setting": "[2]; ASPR 0.8 U/ml", "value": "3 ×10^5"}, {"measurement": "% change in live cells", "setting": "[2]; ASPR 0.8 U/ml", "value": 47, "unit": "%"}, {"measurement": "Live cells ×10^5", "setting": "[3]; ASPR 0.8 U/ml", "value": "6.2 ×10^5"}, {"measurement": "% change in live cells", "setting": "[3]; ASPR 0.8 U/ml", "value": 35, "unit": "%"}, {"measurement": "Live cells ×10^5", "setting": "[4]; ASPR 0.8 U/ml", "value": "9.2 ×10^5"}, {"measurement": "% change in live cells", "setting": "[4]; ASPR 0.8 U/ml", "value": 23, "unit": "%"}]}
